In ChEMBL document CHEMBL3507680, “University of Dundee, Gates Library screen for HepG2 cell viability”:

Experiment: Human HepG2 cell viability assay in 384 well format
Type: toxicity, cell-based
Design: dose 125 nL, time 70.5 hour; concentration not given beside the values
Settings: HepG2 cells, read-out: Inhibition

CN1CCN(S(=O)(=O)c2ccccc2)Cc2cccnc21
cytotoxicity at 70.5 h: -4.28%

Cn1cc(CN2CCc3ncnc(N4CCOCC4)c3CC2)cn1
cytotoxicity at 70.5 h: -1.66%

CN(Cc1cnn(C)c1)CC(O)c1ccc2c(c1)OCO2 (configuration not stated)
cytotoxicity at 70.5 h: -2.83%

CC(C)c1nc(-c2cc(C(=O)NCCCO)c3ccccn23)cs1
cytotoxicity at 70.5 h: -3.65%

Cc1ccc(CN2CCc3onc(COc4cccnc4)c3C2)s1
cytotoxicity at 70.5 h: -26.9%

Cc1cc(C)c(NC(=O)Nc2cnn(CC(O)CN(C)C)c2)c(C)c1 (configuration not stated)
cytotoxicity at 70.5 h: -13.2%

CC(=O)NCc1nnc2n1CCN(c1ncnc3c(C)csc13)CC2
cytotoxicity at 70.5 h: 27%

Cc1ccc(C(=O)CC(SC2CCCCC2)C(=O)O)cc1 (configuration not stated)
cytotoxicity at 70.5 h: -2.59%

CCC(=O)N1CCCCC1c1nc(O)c2c(n1)CN(C(=O)C1CC1)CC2 (configuration not stated)
cytotoxicity at 70.5 h: -7.02%

O=C(c1ccccn1)N1CCCN(Cc2nnc(C3CC3)o2)CC1
cytotoxicity at 70.5 h: -9.21%

Cc1ccc(CN2CCC3(CC(=O)N(c4ccc5c(c4)OCO5)C3)C2)o1 (configuration not stated)
cytotoxicity at 70.5 h: -6.86%

CN(Cc1nc(C(F)(F)F)cs1)C(=O)CCc1cccnc1
cytotoxicity at 70.5 h: -10.4%

c1cnc(NCc2noc3c2CN(C2CCOC2)CC3)nc1 (configuration not stated)
cytotoxicity at 70.5 h: -6.78%

Cc1ccc(F)cc1C(=O)NCc1ccc(C(=O)O)o1
cytotoxicity at 70.5 h: 7.02%

Cc1nc2c(c(=O)n1C)CCN(C(=O)CCc1ccccc1O)CC2
cytotoxicity at 70.5 h: -6.87%

Nc1nnc(CCNC(=O)c2cccc(C3CCCNC3)c2)s1 (configuration not stated)
cytotoxicity at 70.5 h: -10.1%

O=C(NCCc1ccccn1)c1[nH]nc2c1CCCC2
cytotoxicity at 70.5 h: 3.78%

CC(NC(=O)Nc1cccnc1N1CCCC1)c1ccncc1 (configuration not stated)
cytotoxicity at 70.5 h: 0.728%

CC(=O)Nc1ccc(C(=O)N2CCSCC2c2ccc(C)o2)cc1 (configuration not stated)
cytotoxicity at 70.5 h: -4.02%

COCc1cc(C[C@@H]2CC[C@H](O)[C@@H](CNCC(C)C)O2)no1
cytotoxicity at 70.5 h: -0.483%

O=C(CN1C=Nc2ccccc2S1(=O)=O)NC1CCCCC1
cytotoxicity at 70.5 h: 3.38%

Cc1noc(C2CCN(C(=O)c3c(C)noc3C)CC2)n1
cytotoxicity at 70.5 h: -10.7%

Cc1cc(CN2CCC(N(C)Cc3nnc(C4CC4)n3C)C2)on1 (configuration not stated)
cytotoxicity at 70.5 h: -2.5%

O=C(Nc1ccc2c(c1)OCO2)Nc1cnn(C2CCOCC2)c1
cytotoxicity at 70.5 h: -0.609%

COc1cc(F)ccc1CC(=O)N1CC[C@H]2C(=O)NCCO[C@H]2C1
cytotoxicity at 70.5 h: 0.421%

CC1CCCN(Cc2ccc(C(N)=O)cc2)C1 (configuration not stated)
cytotoxicity at 70.5 h: 0.459%

O=C1N(CC2CCCCC2)CCCC1(O)CN1CCc2[nH]ncc2C1 (configuration not stated)
cytotoxicity at 70.5 h: -7.48%

CN(C)CCN1CCOCC2(C1)CN(Cc1nccs1)CCO2 (configuration not stated)
cytotoxicity at 70.5 h: 16.3%

CN(C)c1ccc(NC(=O)N2CCCCC2c2ncc[nH]2)cn1 (configuration not stated)
cytotoxicity at 70.5 h: 14.8%

c1cncc(OC[C@]23COC[C@H]2CN(C2CCOCC2)C3)c1
cytotoxicity at 70.5 h: -1.59%

CS(=O)(=O)NCC1CCCN(C(=O)c2ccc3c(c2)CCCC3)C1 (configuration not stated)
cytotoxicity at 70.5 h: 5.26%

CN1CC2(CCCN(c3cc(N4CCCCC4)ncn3)C2)OC1=O (configuration not stated)
cytotoxicity at 70.5 h: 12.1%

N#CCCCn1nnc(C2(NC(=O)c3ccccc3)CCCC2)n1
cytotoxicity at 70.5 h: -1.12%

O=C(c1ccoc1)N1CCCN(C(=O)c2ccc(C3CCCN3)s2)CC1 (configuration not stated)
cytotoxicity at 70.5 h: -7.17%

CN(Cc1ccsc1)C(=O)c1cc2c([nH]c1=O)CCC2
cytotoxicity at 70.5 h: -4.53%

OCCN(Cc1ccccc1)Cc1ccsc1
cytotoxicity at 70.5 h: -9.98%

Cc1nn(C)c(C)c1C1CCCN1Cc1nc(C2CC2)no1 (configuration not stated)
cytotoxicity at 70.5 h: 36.6%

CCc1cccc(OCC(=O)N2CCCC(n3cncn3)C2)c1 (configuration not stated)
cytotoxicity at 70.5 h: -9.33%

c1cncc(OCc2nnn3c2CN(Cc2ccsc2)CCC3)c1
cytotoxicity at 70.5 h: -11.8%

COCC(=O)N[C@H](C)c1c(-c2ccc(Cl)cc2)noc1C(=O)O
cytotoxicity at 70.5 h: -2.23%

CC(NC(=O)NCc1cccc(F)c1)(C(=O)O)c1ccco1 (configuration not stated)
cytotoxicity at 70.5 h: -8.22%

CCCn1cc(C(=O)NCCS(N)(=O)=O)c2ccccc21
cytotoxicity at 70.5 h: 15.9%

O=C(NCC1CC1)[C@@H]1CCO[C@@H]2CCN(CCc3ccccc3)C[C@H]21
cytotoxicity at 70.5 h: -5.09%

Cc1nnc(SCCCNC(=O)Nc2ccc3c(c2)OCO3)s1
cytotoxicity at 70.5 h: 11.4%

Cc1noc(CN(C)c2ccccc2)n1
cytotoxicity at 70.5 h: -13.6%

O=C(NC1CCCN(Cc2c(F)cccc2F)C1)c1cc[nH]n1 (configuration not stated)
cytotoxicity at 70.5 h: -18%

c1ccc(Cc2nnc(CN3CCOC(Cn4cccn4)C3)o2)cc1 (configuration not stated)
cytotoxicity at 70.5 h: 0.701%

Cc1ccc(-c2nc(CC(=O)NCC(C)N3CCOCC3)cs2)o1 (configuration not stated)
cytotoxicity at 70.5 h: -3.4%

c1cc(CN2CCC3(CC2)COC(COCC2CC2)C3)cs1 (configuration not stated)
cytotoxicity at 70.5 h: -6.27%

COCCc1noc(CNC2CCSC2)n1 (configuration not stated)
cytotoxicity at 70.5 h: -10.2%

CC(C)Oc1cc(N2CC[C@@H](N3CCOCC3)[C@H](O)C2)nc(N)n1
cytotoxicity at 70.5 h: -6.54%

CC(C)c1sc(Br)nc1C(=O)NCc1ccncc1
cytotoxicity at 70.5 h: 23%

Cc1ccc(CN(Cc2ccncc2)C2CCN(C)CC2)s1
cytotoxicity at 70.5 h: 15.5%

Cn1cnc2c1C(COCc1ccccc1)N(Cc1ccncc1)CC2 (configuration not stated)
cytotoxicity at 70.5 h: -3.01%

CN(Cc1ccc(Cl)s1)C(=O)COc1cccc(C(N)=O)c1
cytotoxicity at 70.5 h: -26.8%

CN(C)CCN1C(=O)CCC12CCN(C(=O)CC1CC1)CC2
cytotoxicity at 70.5 h: -6.33%

CC(C)C1CN(C(=O)Nc2cnn(CC(F)F)c2)CCO1 (configuration not stated)
cytotoxicity at 70.5 h: -4.6%

CCOCC(=O)N1CC[C@H]2O[C@@H](C)C[C@H]2C1
cytotoxicity at 70.5 h: -12.8%

CCc1nc(C2CCCN2CC(=O)Nc2cc(C)no2)no1 (configuration not stated)
cytotoxicity at 70.5 h: -5.2%

CCc1nc(C(=O)N2CCCCC2)nn1-c1ccccc1Cl
cytotoxicity at 70.5 h: -6.89%

CC(=O)N1C[C@H](NS(=O)(=O)c2cccc(Cl)c2)[C@@H](C(C)C)C1
cytotoxicity at 70.5 h: -9.51%

Cc1cc(CN2CCN(C(=O)CCc3cccs3)CC2)on1
cytotoxicity at 70.5 h: -18.8%

CCN(C)S(=O)(=O)NCC1(c2cccc(Br)c2)CC1
cytotoxicity at 70.5 h: -1.33%

CCOc1ncccc1NC(=O)NC1CCN(C(C)=O)CC1
cytotoxicity at 70.5 h: 1.62%

c1cnc(NCc2n[nH]c3c2CCN(Cc2ccncc2)C3)nc1
cytotoxicity at 70.5 h: -6.35%

CC(C)(C)C(=O)N1C[C@@H](F)[C@@H](OCc2nc3ccccc3o2)C1
cytotoxicity at 70.5 h: -3.29%

CSc1nnc(CC2CCN(C(=O)CCc3cccnc3)CC2)n1C
cytotoxicity at 70.5 h: -8.7%

COc1ccc(C)cc1CN(C)CCCNS(C)(=O)=O
cytotoxicity at 70.5 h: 7.17%

Fc1ccc(CCC2CCCN(Cc3c[nH]cn3)C2)c(F)c1 (configuration not stated)
cytotoxicity at 70.5 h: -3.29%

Cc1ccccc1CN1CCN(C(=O)c2ccn(C(C)(C)C)c2)CC1
cytotoxicity at 70.5 h: 16.3%

O=C(CN1CC(c2nc(-c3ccco3)no2)C1)NCC1CCCO1 (configuration not stated)
cytotoxicity at 70.5 h: 13.7%

CCn1nc(C)c(CCn2ccnc2-c2cc3n(n2)CCCNC3)c1C
cytotoxicity at 70.5 h: -3.85%

CC(C)N1CC(C(=O)N2CCN(CCn3cccc3)CC2)CC1=O (configuration not stated)
cytotoxicity at 70.5 h: -3.03%

CN(C)S(=O)(=O)c1ccc(CNC(=O)C2CC2)cc1
cytotoxicity at 70.5 h: 1.13%

COCC1CN(C(=O)c2cccn2C)Cc2nccn2C1 (configuration not stated)
cytotoxicity at 70.5 h: -18.2%

O=C(Cc1cccs1)N1CCC(O)(CN2CCc3ccccc3C2)C1 (configuration not stated)
cytotoxicity at 70.5 h: -4.88%

c1cc(-c2ccc3nc(C4CCN(CC5CC5)CC4)nn3c2)cs1
cytotoxicity at 70.5 h: -8.2%

CC(=O)N1CCc2[nH]cnc2C1C1=CCCN(CCn2cccc2)C1 (configuration not stated)
cytotoxicity at 70.5 h: -4.34%

COc1cccc(OCc2nnc3n2N=C(C(C)(C)C)CS3)c1
cytotoxicity at 70.5 h: -8.92%

CN(CCNC(=O)Nc1ccncc1)C1CCCCC1
cytotoxicity at 70.5 h: 30.8%

N#Cc1cc(NS(=O)(=O)CC2CCCCO2)ccc1F (configuration not stated)
cytotoxicity at 70.5 h: -0.517%

CCN(CC)CCC(=O)NCc1cc2n(n1)CCN(C(=O)N(C)C)C2
cytotoxicity at 70.5 h: -11.8%
